Reference: US20100286038A1, “FORMULATION CONTAINING CYCLIN-DEPENDENT KINASE INHIBITING COMPOUND AND METHOD OF TREATING TUMORS USING THE SAME” (priority 2007, published 2010)
Read-outs that look alike come from different tables or passages of the source.

Legend:
[1] = 40 mg/kg once per day for five days; blood on days 1 and 7 following the last dose
Description: The formulation was administered to BALB/c mice at a dosage level of 40 mg/kg once per day for five days. Blood samples were obtained on days 1 and 7 following the last dose and analyzed on an Advia 120 hematology analyzer immediately after diluting 1:5 in PBS. A full differential blood count was performed, including red blood cell analysis (including reticulocyte, variant count, and hemoglobin analyses), white blood cell analysis (including differential lineage counts and peroxidase staining) and a thrombopoiesis analysis.

[2] = tested on: phospho-Rb Ser 807/811; details: single dose IP 40 mg/kg; samples post dose vs T0
From the text: Skin samples were harvested at various intervals following dosing and compared with biopsies harvested prior to dosing (T0). Biopsied samples were fixed overnight in 10% formalin.

[3] = tested on: A2780 cells; details: two hours exposure, 24 hours after exposure
Description: Cells were then fixed, stained with an FITC-conjugated, anti-BrdU monoclonal antibody and propidium iodide. The cells thus prepared were analyzed using 2-color flow cytometry with doublet-discrimination.

[4] = tested on: A2780 cells; details: 2 hours exposure to 0.1 mM
Description: Following washout, lysates were prepared from the cells to assess the duration of the effects of exposure.

[5] = target: T1, CDK6/cyclinD3 (Homo sapiens, UniProt Q00534); assay: Upstate kinase Profiler counter-screening; assay type: biochemical; details: at 1 μM
T1 construct: purchased Upstate

[6] = target: T2, CDK7/cyclinH/MAT1 (Homo sapiens, UniProt P50613); assay: Upstate kinase Profiler counter-screening; assay type: biochemical
T2 construct: purchased Upstate

[7] = target: T3, cSRC (Homo sapiens, UniProt P12931); assay: Upstate kinase Profiler counter-screening; assay type: biochemical
T3 construct: purchased Upstate

[8] = target: T4, Lyn (Homo sapiens, UniProt P07948); assay: Upstate kinase Profiler counter-screening; assay type: biochemical
T4 construct: purchased Upstate

[9] = target: T5, MSK1 (Homo sapiens, UniProt O75582); assay: Upstate kinase Profiler counter-screening; assay type: biochemical
T5 construct: purchased Upstate

[10] = target: T6, PKCβII (Homo sapiens, UniProt P05771); assay: Upstate kinase Profiler counter-screening; assay type: biochemical
T6 construct: purchased Upstate

[11] = target: T7, PKCε (Homo sapiens, UniProt Q02156); assay: Upstate kinase Profiler counter-screening; assay type: biochemical
T7 construct: purchased Upstate
T7 sequence (Q02156 1-737): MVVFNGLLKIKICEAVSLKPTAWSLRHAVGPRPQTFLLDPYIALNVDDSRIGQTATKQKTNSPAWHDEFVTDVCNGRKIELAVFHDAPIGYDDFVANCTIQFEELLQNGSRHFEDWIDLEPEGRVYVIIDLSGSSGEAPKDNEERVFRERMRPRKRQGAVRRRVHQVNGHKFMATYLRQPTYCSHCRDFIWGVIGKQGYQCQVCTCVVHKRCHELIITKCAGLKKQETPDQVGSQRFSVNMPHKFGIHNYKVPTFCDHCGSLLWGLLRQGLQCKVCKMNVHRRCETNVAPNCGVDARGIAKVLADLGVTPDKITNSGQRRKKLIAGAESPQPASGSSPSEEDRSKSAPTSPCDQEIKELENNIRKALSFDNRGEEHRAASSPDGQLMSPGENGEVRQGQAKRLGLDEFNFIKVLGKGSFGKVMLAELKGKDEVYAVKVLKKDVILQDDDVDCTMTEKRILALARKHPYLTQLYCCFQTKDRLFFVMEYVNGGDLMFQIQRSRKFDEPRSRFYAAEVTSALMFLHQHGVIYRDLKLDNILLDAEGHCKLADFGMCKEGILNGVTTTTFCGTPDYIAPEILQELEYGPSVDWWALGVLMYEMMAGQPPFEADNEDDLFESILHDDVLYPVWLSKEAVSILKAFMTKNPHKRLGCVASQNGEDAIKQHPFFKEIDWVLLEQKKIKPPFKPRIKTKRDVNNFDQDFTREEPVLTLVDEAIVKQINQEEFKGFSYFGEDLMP

[12] = target: T8, Rsk2 (Homo sapiens, UniProt P51812); assay: Upstate kinase Profiler counter-screening; assay type: biochemical
T8 construct: purchased Upstate

[13] = tested on: A549 NSCLC xenografts
[14] = tested on: various human tumor cell lines; details: read-out: Mean In-Cell IC50, 24 hours exposure
Description: (§1) The level of activation of apoptosis was also assessed by determining the levels of activated caspase in each cell line. […] The cells were evaluated fluorometrically for levels of activated caspase six hours post washout. Samples of each cell line were also subjected to SDS-PAGE and subsequently immunoblotted for p85 PARP caspase cleavage product.

[15] = tested on: various human tumor cell lines; details: for Caspase Activation (number of sensitive cell lines out of total tested/single exposure): two hour exposure to less than 0.1 micromolar
Description: as §1

[16] = target: Blk (Mus musculus, UniProt P16277)
[17] = tested on: tumor; details: various dosages, 2 hour or 8 hour IV infusion, 21-day dosing cycle
[18] = tested on: xenograft models; details: plasma trough concentrations of less than 25 nM for less than two hours
[19] = tested on: tumor cell lines including the standard NCI panel; details: inhibition of CDK2/CDK1 in tumor cells

T3 sequence (P12931 whole entry, species assumed): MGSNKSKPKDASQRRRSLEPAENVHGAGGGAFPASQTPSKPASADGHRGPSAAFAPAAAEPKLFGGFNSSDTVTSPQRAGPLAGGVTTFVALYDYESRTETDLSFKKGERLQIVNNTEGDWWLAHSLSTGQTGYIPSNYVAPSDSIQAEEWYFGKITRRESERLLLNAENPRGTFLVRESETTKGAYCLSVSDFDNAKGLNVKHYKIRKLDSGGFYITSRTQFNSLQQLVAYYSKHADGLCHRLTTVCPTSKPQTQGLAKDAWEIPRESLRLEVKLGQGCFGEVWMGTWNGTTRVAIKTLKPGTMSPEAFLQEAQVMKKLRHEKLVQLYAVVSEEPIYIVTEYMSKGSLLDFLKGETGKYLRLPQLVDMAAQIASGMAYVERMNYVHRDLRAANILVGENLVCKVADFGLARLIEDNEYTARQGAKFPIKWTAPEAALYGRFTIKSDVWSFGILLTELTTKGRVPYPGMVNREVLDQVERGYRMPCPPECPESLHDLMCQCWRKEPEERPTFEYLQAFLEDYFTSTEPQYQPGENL
T5 sequence (O75582 whole entry, species assumed): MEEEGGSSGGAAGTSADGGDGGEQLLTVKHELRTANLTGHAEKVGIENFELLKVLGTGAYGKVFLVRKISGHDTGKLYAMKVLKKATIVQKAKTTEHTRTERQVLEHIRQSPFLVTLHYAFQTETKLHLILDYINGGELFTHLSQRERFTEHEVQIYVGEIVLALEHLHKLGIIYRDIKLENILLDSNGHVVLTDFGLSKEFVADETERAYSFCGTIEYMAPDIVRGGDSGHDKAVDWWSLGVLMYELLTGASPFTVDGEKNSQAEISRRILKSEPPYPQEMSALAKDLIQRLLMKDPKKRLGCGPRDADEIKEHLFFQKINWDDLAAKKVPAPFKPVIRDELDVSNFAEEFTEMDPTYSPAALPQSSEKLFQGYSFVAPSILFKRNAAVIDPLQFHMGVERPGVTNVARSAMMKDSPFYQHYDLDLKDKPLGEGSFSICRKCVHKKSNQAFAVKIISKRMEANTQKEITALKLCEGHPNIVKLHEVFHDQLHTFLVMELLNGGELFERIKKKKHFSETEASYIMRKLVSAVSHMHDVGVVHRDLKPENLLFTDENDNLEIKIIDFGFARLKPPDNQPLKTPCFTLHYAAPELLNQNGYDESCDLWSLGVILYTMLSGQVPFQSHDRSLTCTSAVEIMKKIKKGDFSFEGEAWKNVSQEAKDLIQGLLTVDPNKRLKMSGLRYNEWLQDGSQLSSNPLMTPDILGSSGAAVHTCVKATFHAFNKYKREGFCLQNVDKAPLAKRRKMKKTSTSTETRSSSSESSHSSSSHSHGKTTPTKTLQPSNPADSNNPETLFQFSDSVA
T6 sequence (P05771 1-673 isoform P05771-2): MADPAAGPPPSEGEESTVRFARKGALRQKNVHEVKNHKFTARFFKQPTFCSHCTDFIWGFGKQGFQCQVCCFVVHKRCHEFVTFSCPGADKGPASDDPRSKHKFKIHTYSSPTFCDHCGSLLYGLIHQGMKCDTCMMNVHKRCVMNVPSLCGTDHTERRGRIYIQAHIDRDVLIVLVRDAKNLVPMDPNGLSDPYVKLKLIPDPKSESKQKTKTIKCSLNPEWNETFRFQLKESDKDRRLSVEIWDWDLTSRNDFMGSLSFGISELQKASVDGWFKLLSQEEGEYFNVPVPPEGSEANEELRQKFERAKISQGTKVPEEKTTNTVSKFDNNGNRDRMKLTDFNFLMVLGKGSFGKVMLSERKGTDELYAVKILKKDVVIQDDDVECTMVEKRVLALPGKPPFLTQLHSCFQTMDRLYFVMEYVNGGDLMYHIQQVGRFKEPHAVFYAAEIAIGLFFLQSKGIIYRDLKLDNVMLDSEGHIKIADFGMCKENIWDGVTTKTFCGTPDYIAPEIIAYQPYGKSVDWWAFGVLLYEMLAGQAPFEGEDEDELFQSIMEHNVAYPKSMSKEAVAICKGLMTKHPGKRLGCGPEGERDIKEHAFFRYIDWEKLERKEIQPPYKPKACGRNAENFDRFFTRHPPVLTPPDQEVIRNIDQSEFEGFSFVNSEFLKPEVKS
T4 sequence (P07948 whole entry, species assumed): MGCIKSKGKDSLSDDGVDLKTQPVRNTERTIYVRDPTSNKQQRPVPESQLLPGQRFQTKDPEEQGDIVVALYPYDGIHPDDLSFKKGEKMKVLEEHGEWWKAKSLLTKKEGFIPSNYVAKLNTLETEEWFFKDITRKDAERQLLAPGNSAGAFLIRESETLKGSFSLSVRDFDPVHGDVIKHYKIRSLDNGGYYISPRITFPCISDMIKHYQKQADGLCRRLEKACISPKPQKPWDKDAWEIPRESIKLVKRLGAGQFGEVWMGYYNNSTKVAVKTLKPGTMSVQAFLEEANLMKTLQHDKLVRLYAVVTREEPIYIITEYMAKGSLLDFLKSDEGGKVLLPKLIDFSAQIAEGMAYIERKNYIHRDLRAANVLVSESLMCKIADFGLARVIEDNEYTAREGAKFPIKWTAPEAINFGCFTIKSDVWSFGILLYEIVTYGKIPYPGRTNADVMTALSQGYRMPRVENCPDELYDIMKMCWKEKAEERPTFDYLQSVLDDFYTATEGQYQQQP
T8 sequence (P51812 whole entry, species assumed): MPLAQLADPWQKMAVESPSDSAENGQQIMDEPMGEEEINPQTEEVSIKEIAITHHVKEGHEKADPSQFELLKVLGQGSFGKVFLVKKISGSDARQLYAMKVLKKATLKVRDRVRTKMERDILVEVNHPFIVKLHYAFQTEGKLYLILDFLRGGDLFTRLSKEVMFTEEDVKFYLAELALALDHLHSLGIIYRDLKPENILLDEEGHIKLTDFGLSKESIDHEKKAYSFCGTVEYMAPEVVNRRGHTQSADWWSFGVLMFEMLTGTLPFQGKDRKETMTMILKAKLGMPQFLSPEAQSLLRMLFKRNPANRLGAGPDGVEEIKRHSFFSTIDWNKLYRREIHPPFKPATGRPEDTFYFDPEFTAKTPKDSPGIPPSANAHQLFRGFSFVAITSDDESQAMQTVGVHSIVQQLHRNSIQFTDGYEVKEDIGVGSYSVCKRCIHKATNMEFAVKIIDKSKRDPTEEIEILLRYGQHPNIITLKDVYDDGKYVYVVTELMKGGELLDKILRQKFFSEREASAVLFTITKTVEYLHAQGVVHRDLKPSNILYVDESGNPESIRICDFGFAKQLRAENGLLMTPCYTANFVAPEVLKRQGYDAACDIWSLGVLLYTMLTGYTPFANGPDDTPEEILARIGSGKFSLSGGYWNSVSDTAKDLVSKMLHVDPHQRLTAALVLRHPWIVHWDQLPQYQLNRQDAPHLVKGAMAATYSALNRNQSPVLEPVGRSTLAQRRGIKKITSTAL
Sequence of Blk (P16277 2-499 limits assumed): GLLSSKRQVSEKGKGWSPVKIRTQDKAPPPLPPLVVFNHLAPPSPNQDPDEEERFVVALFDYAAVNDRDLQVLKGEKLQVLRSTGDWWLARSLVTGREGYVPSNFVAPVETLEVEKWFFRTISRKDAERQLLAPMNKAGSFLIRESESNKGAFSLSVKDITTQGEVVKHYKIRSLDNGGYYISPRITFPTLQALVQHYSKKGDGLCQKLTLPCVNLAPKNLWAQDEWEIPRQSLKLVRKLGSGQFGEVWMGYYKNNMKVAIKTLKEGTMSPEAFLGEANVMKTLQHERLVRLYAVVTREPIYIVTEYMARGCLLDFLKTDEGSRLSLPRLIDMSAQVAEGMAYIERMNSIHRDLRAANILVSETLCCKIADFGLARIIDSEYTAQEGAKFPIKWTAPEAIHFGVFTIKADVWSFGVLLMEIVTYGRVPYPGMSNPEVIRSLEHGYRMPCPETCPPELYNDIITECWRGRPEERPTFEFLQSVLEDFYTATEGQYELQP
T2 sequence (P50613 whole entry, species assumed): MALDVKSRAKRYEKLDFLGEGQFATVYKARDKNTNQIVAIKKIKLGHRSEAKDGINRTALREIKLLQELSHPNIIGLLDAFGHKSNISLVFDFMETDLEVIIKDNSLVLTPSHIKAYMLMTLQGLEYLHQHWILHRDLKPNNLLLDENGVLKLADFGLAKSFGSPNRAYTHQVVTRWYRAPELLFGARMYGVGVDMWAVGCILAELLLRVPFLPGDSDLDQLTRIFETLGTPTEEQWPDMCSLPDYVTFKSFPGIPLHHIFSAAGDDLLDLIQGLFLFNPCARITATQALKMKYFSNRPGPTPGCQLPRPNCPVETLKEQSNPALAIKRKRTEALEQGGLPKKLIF
T2 sequence (P51946 whole entry partner, species assumed): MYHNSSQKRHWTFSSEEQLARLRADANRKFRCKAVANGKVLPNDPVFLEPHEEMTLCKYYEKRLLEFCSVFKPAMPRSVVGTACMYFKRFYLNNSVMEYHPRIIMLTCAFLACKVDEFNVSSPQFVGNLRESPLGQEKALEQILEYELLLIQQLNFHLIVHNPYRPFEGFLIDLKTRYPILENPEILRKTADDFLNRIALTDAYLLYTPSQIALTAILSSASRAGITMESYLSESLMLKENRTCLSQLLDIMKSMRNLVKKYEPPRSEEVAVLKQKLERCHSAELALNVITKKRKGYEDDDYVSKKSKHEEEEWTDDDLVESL
T2 sequence (P51948 whole entry partner, species assumed): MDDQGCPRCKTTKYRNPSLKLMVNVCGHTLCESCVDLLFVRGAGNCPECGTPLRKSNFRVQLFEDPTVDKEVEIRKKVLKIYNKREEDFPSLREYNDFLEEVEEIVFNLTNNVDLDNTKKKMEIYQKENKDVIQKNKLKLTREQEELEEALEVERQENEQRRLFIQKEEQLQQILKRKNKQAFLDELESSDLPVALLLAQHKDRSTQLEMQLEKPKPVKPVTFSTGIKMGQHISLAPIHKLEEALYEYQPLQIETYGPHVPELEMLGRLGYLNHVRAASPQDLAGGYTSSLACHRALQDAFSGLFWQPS

CCc1cnn2c(NCc3ccc[n+]([O-])c3)cc(N3CCCC[C@H]3CCO)nc12 [Formula II]
effect on platelets or red blood cells [1]: No effect | phospho-Rb in proliferating epithelial cells of basal epithelium and hair follicles [2]: rapid and sustained suppression of phospho-Rb | exposure completely suppressing DNA synthesis [3]: greater than 0.5 micromolar | exposure showing accumulation of subG1 (apoptotic cells) [3]: greater than 0.5 micromolar | period of suppression of RB phosphorylation and caspase activation after the washout [4]: exceeding 6 hours | % remaining activity [5]: 12% | % remaining activity ([6]; at 1 μM): 7% | % remaining activity ([6]; at 10 μM): 4% | % remaining activity ([7]; at 1 μM): 117% | % remaining activity ([7]; at 10 μM): 111% | % remaining activity ([8]; at 1 μM): 108% | % remaining activity ([8]; at 10 μM): 110% | % remaining activity ([9]; at 1 μM): 94% | % remaining activity ([9]; at 10 μM): 97% | % remaining activity ([10]; at 1 μM): 110% | % remaining activity ([10]; at 10 μM): 113% | % remaining activity ([11]; at 1 μM): 93% | % remaining activity ([11]; at 10 μM): 88% | % remaining activity ([12]; at 1 μM): 104% | % remaining activity ([12]; at 10 μM): 76% | effect on tumor volume ([13]; 5 dosing schedules (20, 29, 52, 3x17, 87 mg/kg), total 260 mg/kg): regression in tumor volume and mass | % inhibition observed at dosage of 5 mg/kg Formula II ([13]; first Formula II column): 73% | % inhibition observed at dosage of 5 mg/kg Formula II ([13]; second Formula II column): 160 (regression) % | IC50 ([14]; Bladder): 10 nM | IC50 ([14]; Breast): 8 nM | IC50 ([14]; Colon): 17 nM | IC50 ([14]; Leukemia): 6 nM | IC50 ([14]; Liver): 8 nM | IC50 ([14]; Lymphoma (NHL)): 7 nM | IC50 ([14]; Mantle Cell lymphoma): 7 nM | IC50 ([14]; Melanoma): 9 nM | IC50 ([14]; NSCLC): 14 nM | IC50 ([14]; Ovarian): 14 nM | IC50 ([14]; Pancreatic): 15 nM | IC50 ([14]; Prostate): 12 nM | IC50 ([14]; SCLC): 6 nM | Caspase Activation (number of sensitive cell lines out of total tested/single exposure) ([15]; Bladder): 1 of 2 | Caspase Activation (number of sensitive cell lines out of total tested/single exposure) ([15]; Breast): 6 of 7 | Caspase Activation (number of sensitive cell lines out of total tested/single exposure) ([15]; Colon): 5 of 9 | Caspase Activation (number of sensitive cell lines out of total tested/single exposure) ([15]; Leukemia): 5 of 6 | Caspase Activation (number of sensitive cell lines out of total tested/single exposure) ([15]; Liver): 2 of 2 | Caspase Activation (number of sensitive cell lines out of total tested/single exposure) ([15]; Lymphoma (NHL)): 8 of 8 | Caspase Activation (number of sensitive cell lines out of total tested/single exposure) ([15]; Mantle Cell lymphoma): 3 of 4 | Caspase Activation (number of sensitive cell lines out of total tested/single exposure) ([15]; Melanoma): 9 of 9 | Caspase Activation (number of sensitive cell lines out of total tested/single exposure) ([15]; NSCLC): 8 of 9 | Caspase Activation (number of sensitive cell lines out of total tested/single exposure) ([15]; Ovarian): 5 of 7 | Caspase Activation (number of sensitive cell lines out of total tested/single exposure) ([15]; Pancreatic): 11 of 15 | Caspase Activation (number of sensitive cell lines out of total tested/single exposure) ([15]; Prostate): 4 of 5 | Caspase Activation (number of sensitive cell lines out of total tested/single exposure) ([15]; SCLC): 2 of 6 | share of cell lines tested with caspase activation and apoptosis detected ([15]; single exposure): over 85% | % remaining activity ([16]; at 1 μM): 69% | % remaining activity ([16]; at 10 μM): 100% | responses by RECIST criteria in the population [17]: no complete or partial responses | effect on xenograft tumors [18]: tumor growth inhibition or regression | number of tumor cell lines with cell cycle arrest and apoptosis [19]: more than 100 tumor cell lines
